Test results published in patent US20050075399A1, “Methods and kits for enhancing ability to learn in a puppy or kitten” (The Procter & Gamble Company, priority 2003, published 2005).

Tests used:
Format in all cases: in vivo
purebred beagle puppies [1] = assay: Three-door location training test (assigned door); conditions: all puppies regardless of group (0.18% DHA or 0.02% DHA food composition, ad libitum)
Description: (§1) A study is conducted to determine effect of compositions described herein upon the ability of puppies to learn in a training environment.
(§2) Twelve purebred beagle puppies are randomized and assigned to either Group 1 or Group 2. Each of Groups 1 and 2 contains six of the puppies. Each of the puppies is about nine weeks of age. Their respective weights are appropriate for age and body size.
(§3) Two treatment compositions are utilized for the study. These compositions are: 1) for Group 1, a nutritionally balanced food composition comprising an essential fatty acid component comprising 0.18% DHA, by weight of the composition; and 2) for Group 2, a nutritionally balanced food composition which is similar in all respects except that the essential fatty acid component comprises 0.02% DHA, by weight of the composition.
(§4) Throughout the study, the puppies are fed their respective compositions ad libitum. Treats are utilized for training purposes; the treats which are used are PURINA® Puppy Canned Formula.
The study utilizes three doors of identical size and shape. Each puppy is randomly assigned to one of three doors along with a random symbol (circle or square) for location training. The objective of the study is to train the puppy to reach the “correct” door, i.e. the door bearing the shape which is assigned to the respective puppy. A box is marked with tape in front of each door. […]

purebred beagle puppies [2] = assay: Maze test of the ability of puppies to learn in a training environment (success criteria); conditions: puppy and maternal animal
Description: as §1
Ten purebred beagle puppies are randomized and assigned to Group 1 (n=3), Group 2 (n=3), or Group 3 (n=4). Each of the puppies is about nine weeks of age. Their respective weights are appropriate for age and body size.
as §3, with “Three” for “Two”, “about 0.14%” for “0.18%”, “composition;” for “composition; and”, “comprises about 0.08% DHA, by weight of the composition; and 3) for Group 3, a nutritionally balanced food composition which is similar in all respects except that the essential fatty acid component comprises about” for “comprises”
(§5) The respective maternal animal for each puppy in Group 1 receives, ad libitum, a nutritionally balanced food composition comprising an essential fatty acid component comprising about 0.14% DHA, by weight of the composition, during gestation, nursing, or weaning (or any combination thereof) of such puppy.
as §5, with “2” for “1”, “0.08%” for “0.14%”
as §5, with “3” for “1”, “0.02%” for “0.14%”
Throughout the study, the puppies are fed their respective compositions twice daily. Treats are utilized for training purposes; the treats which are used are PURINA® Puppy Canned Formula.
The study utilizes a room having a maze constructed in general accordance with the maze illustrated in FIG. 2. Referring now to FIG. 2, Point A Crate is a starting area and contains a crate with a door that cannot be seen through. This crate door is easily opened by a study technician. The crate allows immediate entrance into the maze when the door is opened. The crate door is opened either upward or flat, or by some other means such that the maze path is not obstructed. Point B Maze Symbol contains one of two symbols (i.e., a circle and square) indicating to the trained puppy where the treat will be located. The symbol is attached at a height which is easily visualized by the puppy. Point C Treat Pan is the ending location where the treat pan will be located. Point C Treat Pan is the correct designation for a maze designated left. Point D Treat Pan is the ending location where another treat pan will be located. Point D Treat Pan is the correct designation for a maze designated right.
Prior to training, each puppy is randomly assigned two symbol-direction combinations. The possible groupings are identified below as Groups A and B:
Training with assistance takes place for one week. Each puppy is trained in accordance to whether it is a Group A puppy or a Group B puppy. For Group A puppies, the puppy is trained numerous times to learn that if a treat is placed on the circle at Point B Maze Symbol, then another treat is located to the right at Point D Treat Pan. Likewise, for Group A puppies, the puppy is trained the same number of time to learn that if a treat is placed on the square at Point B Maze Symbol, then another treat is located to the left at Point C Treat Pan. Group B puppies will follow this same outline with the exception that sessions with a circle as the symbol will go to the left and a square as the symbol will go right. […]

purebred beagle puppies [3] = assay: Three-door multiple shape testing (symbol as the cue); conditions: for puppies that passed the test on their initial testing: pass = at least 80% correct
Description: as §1, §2, §3, §4
Following location training, each puppy receives two days of shape training, wherein the study shapes are randomly placed on different doors simultaneously. The objective is to determine whether the puppy learns that the symbol is associated with the treat target, not the door location. Following this training, each puppy received two testing sessions to determine ability to identify the symbol as the cue. A puppy is determined to pass if at least 80% of the test is correct. Puppies that failed are given two additional days of training and are retested. A puppy is given a maximum of three attempts to pass the multiple shape testing.
Each puppy is randomly assigned a shape of either a square or a circle. The “correct” door is the door bearing the shape which is assigned to the puppy; the location of the “correct” door is systematically modified throughout the study such that the puppy must learn to identify with the shape rather than the location of the door. The puppies are trained for several days in order to learn the process of choosing the “correct” door within a time period of two minutes. Training occurs with various learning procedures, including placing a trail of treats in front of the “correct” door.
After several days of training, the learning procedures are eliminated and the puppy performs without intervention. The puppy is given two minutes to reach the “correct” door. If the puppy fails to reach the “correct” door within the two minute time period, the puppy receives an incorrect score for that attempt. If the puppy reaches the “correct” door within the two minute time period, the puppy receives a correct score for that attempt.

[4] = Group 1 (n=3): food composition about 0.14% DHA
[5] = Group 2 (n=3): food composition about 0.08% DHA
[6] = Group 3 (n=4): food composition about 0.02% DHA
[7] = Group 1 (n=6): food composition 0.18% DHA ad libitum
[8] = Group 2 (n=6): food composition 0.02% DHA ad libitum

CC/C=C\C/C=C\C/C=C\C/C=C\C/C=C\C/C=C\CCC(=O)O [DHA, docosahexaenoic acid]
correct scores in locating the assigned location (door) (purebred beagle puppies [1]): greater than 90% | puppies that achieved a single success criteria (purebred beagle puppies [2]; [4]): 100% | puppies that achieved two success criteria (purebred beagle puppies [2]; [4]): 66% | puppies that achieved a single success criteria (purebred beagle puppies [2]; [5]): 66% | puppies that achieved two success criteria (purebred beagle puppies [2]; [5]): 0% | puppies that achieved a single success criteria (purebred beagle puppies [2]; [6]): 50% | puppies that achieved two success criteria (purebred beagle puppies [2]; [6]): 0% | puppies that passed following additional training days (purebred beagle puppies [3]; [7]): 75% | puppies that passed the test on their initial testing (purebred beagle puppies [3]; [7]): 50% | puppies that passed following additional training days (purebred beagle puppies [3]; [8]): 45% | puppies that passed the test on their initial testing (purebred beagle puppies [3]; [8]): 16%
